For experiment [1], the system named is THP-1. The experiment can be described thus: Cytotoxicity against human THP1 cells after 48 hrs assessed as morphological changes in the dark condition. Format: functional, cell-based.
For experiment [2], the system named is THP-1. The experiment can be described thus: Cytotoxicity against human THP1 cells after 48 hrs assessed morphological changes compound exposed to light for 20 mins before treatment. Format: functional, cell-based.

The values that follow come from ChEMBL document CHEMBL1154270, “Light-independent metabolomics of endophytic Thielavia subthermophila provides insight into microbial hypericin biosynthesis” (J Nat Prod, 2009).

Each structure is given as a SMILES string. Activity calls are given as the source filed them. The rule behind the calls is not given here.

Consider `Cc1cc(O)c2c(c1)Cc1cc(O)cc(O)c1C2=O`, for which the result in experiment [1] and in experiment [2] was Active.
Turning to `Cc1cc(O)c2c(c1)C(=O)c1cc(O)cc(O)c1C2=O`, the result in experiment [1] and in experiment [2] was Active.
On to `Cc1cc(O)c2c(=O)c3c(O)cc(O)c4c5c(O)cc(O)c6c(=O)c7c(O)cc(C)c8c1c2c(c34)c(c78)c65`, for which the result in experiment [1] and in experiment [2] was Active.
For the molecule `Cc1cc(O)c2c(=O)c3c(O)cc(O)c4c5c(O)cc(O)c6c(=O)c7c(O)cc(C)cc7c(c65)c(c2c1)c34`, the outcome in experiment [1] and in experiment [2] was Active.
